Key:
Assay type in all cases: cell-based, human
A549 cells [1] = test: MTT assay, anti-proliferative effect in A549 cells; conditions: 48 h treatment, read-out: IC50 to inhibit cell proliferation
Description: (§1) Therefore, D-DSePA was compared with un-deuterated DSePA for its anticancer activity in A549, H1975 and H3122 cell lines which are representative of NSCLC. For this, above cells were treated with the varying concentrations (0.1-100 μM) of DSePA/D-DSePA for 48 h and the cell viability was determined by MTT assay (FIG. 9A-C). The plot of percent (%) cytotoxicity (100-% viability) versus the concentration of DSePA/D-DSePA was used to estimate the half maximum concentration (IC50) of above compounds to inhibit the proliferation of cells. […] Employing these values, the therapeutic index (IC50 in normal lung cell/IC50 in lung cancer cell) of DSePA and D-DSePA in different pairs of normal versus cancerous cells (viz., A549/WI-38, A549/WI-26 VA4, H1975/WI-38, H1975/WI-26 VA4, H3122/WI-38 and H3122/WI-26 VA4) was calculated (Table-3). […]
(§2) MTT Assay—To evaluate the anti-proliferative effect of D-DScPA and DScPA, Cells (˜5×10^3) suspended in 100 μl of complete culture medium were seeded in each well of 96 well plates. […] The percentage (%) cytotoxicity was calculated from the decrease in absorbance at 570 nm of treated groups as compared to that of control group. […] The therapeutic index was calculated by normalizing the IC50 concentration of D-DSePA/DSePA in non-cancerous cells to that in cancerous cells.

H1975 cells = test: MTT assay, anti-proliferative effect in H1975 cells; conditions: 48 h treatment, read-out: IC50 to inhibit cell proliferation
Description: as §1, §2

H3122 cells = test: MTT assay, anti-proliferative effect in H3122 cells; conditions: 48 h treatment, read-out: IC50 to inhibit cell proliferation
Description: as §1, §2

WI-38 cells [2] = test: MTT assay, toxicity in non-cancerous lung fibroblast WI-38 cells; conditions: WI38 cells, 48 h post treatment, read-out: IC50 for inhibiting the cell proliferation
Excerpt: as §1, with “For this, above cells were treated with the varying concentrations (0.1-100 μM) of DSePA/D-DSePA for 48 h and the cell viability was determined by MTT assay (FIG. 9A-C).” left out, “cells. […] Similarly, the toxicity of DSePA/D-DSePA was studied in non-cancerous lung fibroblast cells, WI-38 and WI-26 VA4 in the concentration range of 0.1 to 1000 μM at 48 h post treatment by MTT assay (FIG. 9D and 9E).” for “cells.”
as §2

WI-26 VA4 cells = test: MTT assay, toxicity in non-cancerous lung fibroblast WI-26 VA4 cells; conditions: 48 h post treatment, read-out: IC50 for inhibiting the cell proliferation
Excerpt: as §1, with “For this, above cells were treated with the varying concentrations (0.1-100 μM) of DSePA/D-DSePA for 48 h and the cell viability was determined by MTT assay (FIG. 9A-C).” left out, “cells. […] Similarly, the toxicity of DSePA/D-DSePA was studied in non-cancerous lung fibroblast cells, WI-38 and WI-26 VA4 in the concentration range of 0.1 to 1000 μM at 48 h post treatment by MTT assay (FIG. 9D and 9E).” for “cells.”
as §2

A549 cells [3] = test: Clonogenic assay in A549 cells; conditions: seven days treatment, read-out: IC50 to inhibit growth (survival fraction)
Description: (§3) Further, clonogenic assay is considered as the gold standard method for evaluating the anticancer activity of any compound and is also a good indicator of the in vivo efficacy of any anticancer compound. Therefore, the therapeutic index of DSePA and D-DSePA in A549/WI-38 cells was also validated by employing the clonogenic assay. For this, A549/WI-38 cells were treated with the varying concentrations (0.1-2 μM)/(1-500 μM) of DSePA/D-DSePA for seven days and the survival fraction was calculated by counting the number of surviving clones (FIG. 11A). The plot of survival fraction verses the concentration of DScPA/D-DSCPA was used to estimate the IC50 of above compounds to inhibit the growth of A549/WI-38 cells. […] This clearly confirmed that deuteration of DScPA reduced its toxicity in normal cells without compromising its efficacy in cancer cells. […]
(§4) Clonogenic assay—Clonogenic assay was performed according to the method reported previously. […] After 7 days, colonies were fixed with absolute methanol for 5 min, stained with 0.5% crystal violet for 5 min, washed with distilled water to remove excess stain and counted manually under a stereo microscope. […] The plating efficiency and the survival fraction under irradiated and drug treated conditions were calculated using following formulae: […]
(§5) The plating efficiency of A549 and WI38 cells was calculated by seeding ˜300 and ˜500 cells respectively. […]

WI-38 cells [4] = test: Clonogenic assay in WI-38 cells; conditions: seven days treatment, read-out: IC50 to inhibit growth (survival fraction)
Description: as §3, §4, §5

`O=C(O)CC[Se][Se]CCC(=O)O` [D-DSePA, 3,3′-diselenodipropionic acid-D8] showed an IC50 (A549 cells [1]) of 15.2 ± 0.9 µM, an IC50 (H1975 cells) of 4.6 ± 0.7 µM and an IC50 (H3122 cells) of 46.5 ± 2.9 µM. It also gave an IC50 (WI-38 cells [2]) of 1000 ± 6.3 µM, an IC50 (WI-26 VA4 cells) of 550 ± 10.2 µM and an IC50 (A549 cells [3]) of 0.9 ± 0.03 µM. It also gave an IC50 (WI-38 cells [4]) of 35.5 ± 0.02 µM.

Reference: US20240208901A1, “Deuterated 3,3'-Diselenodipropionic Acid (DSePA) and Its Use as an Anticancer or Radioprotective Agent” (Secretary, Department of Atomic Energy, priority 2022, published 2024)
